{
  "source": "patent US20220079931A1",
  "about": "“ESTROGEN RECEPTOR PROTEIN DEGRADERS” (THE REGENTS OF THE UNIVERSITY OF MICHIGAN, priority 2019, published 2022)",
  "key": {"[1]": {"molecular_target": "T1, ERα (Homo sapiens, UniProt P03372)", "T1 sequence (P03372 1-595)": "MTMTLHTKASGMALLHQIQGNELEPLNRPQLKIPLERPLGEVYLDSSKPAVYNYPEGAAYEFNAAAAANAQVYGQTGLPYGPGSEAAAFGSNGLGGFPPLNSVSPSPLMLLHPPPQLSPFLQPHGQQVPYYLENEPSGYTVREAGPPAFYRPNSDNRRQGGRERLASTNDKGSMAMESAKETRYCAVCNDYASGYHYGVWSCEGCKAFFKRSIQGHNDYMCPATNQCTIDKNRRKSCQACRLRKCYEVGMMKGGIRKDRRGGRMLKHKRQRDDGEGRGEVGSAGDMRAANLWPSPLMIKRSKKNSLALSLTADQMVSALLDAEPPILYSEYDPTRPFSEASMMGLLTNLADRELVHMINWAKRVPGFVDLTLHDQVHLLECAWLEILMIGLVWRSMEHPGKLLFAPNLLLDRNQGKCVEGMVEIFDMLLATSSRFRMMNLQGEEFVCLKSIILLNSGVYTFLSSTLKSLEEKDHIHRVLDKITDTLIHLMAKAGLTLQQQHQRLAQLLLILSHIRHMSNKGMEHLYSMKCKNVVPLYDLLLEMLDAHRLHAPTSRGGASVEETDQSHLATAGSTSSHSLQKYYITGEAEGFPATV", "assay": "ER degradation by Western blotting in MCF-7 cells", "format": "cell-based", "design": "host or cells: MCF-7", "experimental": "FIG. 1 is an image showing the Western blotting analysis of ER protein in MCF-7 cells treated with Compounds of the Disclosure and control compounds. Cells were treated with different compounds for 4 h and whole cell lysates were then analyzed by Western blotting to examine the level of ER protein. GADPH protein was used for the loading control. The numbers below the panel represent the ERα/GADPH ratio normalized with the DMSO control at 100.\nFIG. 2 is an image showing the Western blotting analysis of ER protein in the MCF-7 cells treated with indicated compounds at 1 nM, 10 nM and 100 nM. MCF-7 cells were treated with different compounds for 4 h and whole cell lysates were analyzed by Western blotting to examine the level of ER protein. GADPH protein was used for the loading control. The numbers below the panel represent the ERα/GADPH ratio normalized with the DMSO control at 100.\nFIG. 7 is an image showing the ERα degradation dose-response Western blotting for compound 32 at 4 h in MCF-7 cells.\nFIG. 9 is an image showing the time course of ERα degradation by Western blotting by compound 32 (30 nM) and fulvestrant (30 nM) in the MCF-7 cells.\n(§1) Cell Culture. Human breast cancer cell lines MCF-7 (ATCC® HTB-22™) and T47D (ATCC® HTB-133™) were purchased from the American Type Culture Collection (ATCC), Manassas, Va., and maintained and cultured in Dulbecco's Modified Eagle's medium (DMEM) containing 10% fetal bovine serum, 1 unit/ml of penicillin and 1 μg/ml of streptomycin. Cells with 3-8 passages after purchase were used in experiments as indicated.\n(§2) Western Blot Analysis. Western blot analysis was performed essentially as described previously (Hu et al, 2015, PMID: 26358219). Cells treated with indicated compounds were lysed in Radioimmunoprecipitation Assay Protein Lysis and Extraction Buffer (25 mmol/L Tris.HCl, pH 7.6, 150 mmol/L NaCl, 1% Nonidet P-40, 1% sodium deoxycholate, and 0.1% sodium dodecyl sulfate) containing proteinase inhibitor cocktail (Roche Diagnostics, Mannheim, Germany). After determination of protein concentration by BCA assay (Fisher Scientific, Pittsburgh, Pa.), equal amounts of total protein were electrophoresed through 10% SDS-polyacrylamide gels. The separated protein bands were transferred onto PVDF membranes (GE Healthcare Life Sciences, Marlborough, Mass.) and blotted against different antibodies, as indicated. The human estrogen receptor a antibodies (AB16460) were purchased from Abeam, Inc., Cambridge, Mass. The membranes were reblotted with horseradish peroxidase-conjugated anti-glyceraldehyde-3-phosphate dehydrogenase antibody (G9295) from Sigma-Aldrich Corporation, St. Louis, Mo. The blots were scanned and the band intensities were quantified using GelQuant.NET software as described in biochemlabsolutions.com. The relative mean intensity of target proteins was expressed after normalization to the intensity of glyceraldehyde-3-phosphate dehydrogenase bands from individual repeats."}, "[2]": {"tested_on": "MCF-7 cells", "assay": "WST-8 cell proliferation assay in MCF-7 cells", "format": "cell-based, human", "experimental": "as §1\nCell Growth Assay. Cells were seeded at 1500/well in 96 well plates overnight. One day after seeding, they were treated with indicated doses of compounds. The growth of the cells was evaluated by colorimetric WST-8 assay 4 days after the compound treatment following the instructions of the manufacturer, Cayman Chemical, Ann Arbor, Mich.\nFulvestrant achieves an Imax value of 43.8%. […] RAD1901, a previously reported SERD molecule^18, achieves an Imax value of 25.7%."}, "[3]": {"tested_on": "mRNA levels of pGR and GREB1", "assay": "qRT-PCR of ER-regulated genes in MCF-7 cells"}, "[4]": {"molecular_target": "T1, ERα", "assay": "Mechanism of ER degradation: pretreatment with VHL ligand, ER ligand or proteasome inhibitor, Western blotting in MCF-7 cells", "format": "cell-based", "design": "host or cells: MCF-7", "conditions": "32 at 30 nM 4 h", "experimental": "(§3) Then whole-cell lysates were analyzed by Western blotting.\nas §3\nas §2, with “Western blot analysis was performed essentially as described previously (Hu et al, 2015, PMID: 26358219).” left out"}},
  "data": [
    {"compound": "CCN(CCCCCOCC(=O)N[C@H](C(=O)N1C[C@H](O)C[C@H]1C(=O)N[C@@H](C)c1ccc(-c2scnc2C)cc1)C(C)(C)C)CCOc1ccc(C(=O)c2c(-c3ccc(O)cc3)sc3cc(O)ccc23)cc1", "note": "[compound 32, (2S,4R)-1-((S)-2-(2-((5-(Ethyl(2-(4-(6-hydroxy-2-(4-hydroxyphenyl)benzo[b]thiophene-3-carbonyl)phenoxy)ethyl)amino)pentyl)oxy)acetamido)-3,3-dimethylbutanoyl)-4-hydroxy-N—((S)-1-(4-(4-methylthiazol-5-yl)phenyl)ethyl)pyrrolidine-2-carboxamide]", "values": [
      {"measurement": "reduction of ER protein level at 1 h", "setting": "[1]; 30 nM, 1 h treatment", "value": "> 80", "unit": "%"},
      {"measurement": "ER degradation at the 3 h time-point", "setting": "[1]; 30 nM, 3 h", "value": "essentially complete ER degradation"},
      {"measurement": "DC50", "setting": "[1]; 4 h treatment, read-out: DC50 (concentration to achieve 50% of protein degradation)", "value": 0.17, "unit": "nM"},
      {"measurement": "maximum ER degradation", "setting": "[1]; at concentrations as low as 5 nM", "value": "> 95", "unit": "%"},
      {"measurement": "IC50", "setting": "[2]; Homo sapiens, MCF7, 96 h, read-out: IC50, inhibition of cell proliferation", "value": 0.77, "unit": "nM"},
      {"measurement": "maximum inhibition (Imax)", "setting": "[2]; MCF-7 cells, WST-8, 4 days", "value": 57.5, "unit": "%"},
      {"measurement": "suppression of pGR and GREB1 expression compared with fulvestrant", "setting": "[3]; 10 nM and 100 nM", "value": "slightly more effective than fulvestrant"},
      {"measurement": "suppression of pGR and GREB1 expression compared with raloxifene", "setting": "[3]; 10 nM and 100 nM", "value": "significantly more effective than raloxifene"},
      {"measurement": "suppression of expression of pGR and GREB1", "setting": "[3]; qRT-PCR", "value": "strongly suppressed"},
      {"measurement": "blocking of ER degradation by compound 32 with 1 μM VHL ligand 11", "setting": "[4]; 1 μM VHL ligand 11 pretreatment 2 h", "value": "only slightly"},
      {"measurement": "ER degradation induced by compound 32 on addition of carfilzomib", "setting": "[4]; 1 μM proteasome inhibitor carfilzomib pretreatment 2 h", "value": "significantly reduced"},
      {"measurement": "ER degradation induced by compound 32 on addition of raloxifene", "setting": "[4]; 1 μM raloxifene pretreatment 2 h", "value": "significantly reduced"},
      {"measurement": "blocking of ER degradation by compound 32 with 5 μM or 10 μM VHL ligand 11", "setting": "[4]; 5 μM or 10 μM of 11 pretreatment 2 h", "value": "completely blocked"}
    ]}
  ]
}
